Measured values: patent US6162830A, “Benzenesulfonamide inhibitors of PDE-IV and their therapeutic use” (Warner-Lambert Company, priority 2000, dated 2000)

Test system: PDE-IV
Assay: PDE-IV Assay Procedure (SPA, 3H-cAMP, U937 lysate)
Assay type: biochemical
Settings: U937 cell lysate as PDE-IV source; 200 nM cAMP, 8 nM 3H-cAMP; pH 8.0; 2% DMSO; 1 hour at 37° C.; initially tested at 10, 3, 1, 0.3, 0.1 μM
Method: Representative compounds to be tested were diluted in 96-well plates. The compounds were either received as a 10 mM stock solution in DMSO, or as a solid which was resuspended to a concentration of 10 mM in DMSO. The compounds were initially tested at 10, 3, 1, 0.3, and 0.1 μM to calculate an IC50. In some cases, plates containing diluted compounds were frozen before being assayed. In these cases, the plates were thawed for 15 minutes at 37° C. and agitated before proceeding.
Two microliters of the diluted compounds on Rolipram were spotted into an assay plate. Ninety-eight microliters of reaction mixture containing PDE-IV enzyme were added to each well. The plate was then agitated for 2 minutes at a setting of 3.5 on a vortex and incubated for 1 hour at 37° C. The reaction was terminated with 50 μl of 0.5X SPA beads, and the reaction tray was allowed to incubate at room temperature for 20 minutes before radioactivity was measured using standard instrumentation.
The reaction mixture contained 35.2 mM Tris pH 8.0, 9.4 mM MgCl2, 4 mM β-mercapotoethanol, 200 nM cAMP, 8 nM ^3 H-cAMP, 2% DMSO 1% U937 lysate (from ABS). The reaction mixture was prepared by adding […] H2 O to 10 mL 10X Assay Buffer, 40 μL 1 μCi/μL ^3 H-cAMP, 20 μL 1 mM cAMP (cAMP stock made fresh each time), and 1 mL U937 cell lysate. 10X assay buffer was prepared by mixing 400 mM Tris Base with 400 mM Tris HCl to pH 8.0, adding to 100 mL of this Tris buffer solution, 1.017 g MgCl2, 319 μL μ-mercaptoethanol. 0.5X SPA beads was prepared by adding 500 mg beads to 56 mL H2 O for a final concentration of 8.9 mg/mL beads and 9 mM zinc sulfate.

IC50 [µM]	SMILES
0.46	CCCN(CCC)S(=O)(=O)c1ccc(OC)c(OC)c1 [Example 4, N,N-Dipropyl-3,4-dimethoxybenzenesulfonamide]
0.45	C=CCN(CC=C)S(=O)(=O)c1ccc(OC)c(OC)c1 [Example 5, N,N-Di-(2-propenyl)-3,4-dimethoxybenzenesulfonamide]
0.28	CCOc1ccc(S(=O)(=O)N(C)C)cc1OCC [Example 6, N,N-Dimethyl-3,4-diethoxybenzenesulfonamide]
3.6	COc1ccc(S(=O)(=O)N2CCCCC2)cc1OC [Example 7, N-(3,4-dimethoxybenzenesulfonyl)piperidine]
3.2	COc1ccc(S(=O)(=O)N2CCCC2)cc1OC [Example 8, N-(3,4-dimethoxybenzenesulfonyl)pyrrolidine]
2.2	COc1ccc(S(=O)(=O)NC2CCCCC2)cc1OC [Example 9, N-(3,4-dimethoxybenzenesulfonyl)cyclohexylamine]
0.17	C#CCN(C)S(=O)(=O)c1ccc(OCC)c(OCC)c1 [Example 10, N-(2-Propynyl)-N-methyl-3,4-diethoxybenzenesulfonamide]
0.7	CCN(C)S(=O)(=O)c1ccc(OC)c(OC)c1 [Example 11, N-Ethyl-N-methyl-3,4-dimethoxybenzenesulfonamide]
0.47	CCCN(C)S(=O)(=O)c1ccc(OC)c(OC)c1 [Example 12, N-Propyl-N-methyl-3,4-dimethoxybenzenesulfonamide]
0.66	C=CCN(C)S(=O)(=O)c1ccc(OC)c(OC)c1 [Example 15, N-(2-Propenyl)-N-methyl-3,4-dimethoxybenzenesulfonamide]
1.56	CC=CCN(C)S(=O)(=O)c1ccc(OC)c(OC)c1 [Example 16, N-(2-Butenyl)-N-methyl-3,4-dimethoxybenzenesulfonamide]
0.02	C=CCN(C)S(=O)(=O)c1ccc(OCC)c(OCC)c1 [Example 17, N-(2-Propenyl)-N-methyl-3,4-diethoxybenzenesulfonamide]
1.76	COc1ccc(S(=O)(=O)N(C)CC#N)cc1OC [Example 23, N-(methylenenitrile)-N-methyl-3,4-dimethoxybenzenesulfonamide]
